How the values were obtained:
[1] = Antiinflammatory activity in human THP1 cells assessed as inhibition of LPS-stimulated TNFalpha production at 50 uM; assay type: functional; conditions: THP-1
[2] = Antiinflammatory activity in human THP1 cells assessed as inhibition of LPS-stimulated TNFalpha production; conditions: THP-1
[3] = Antiinflammatory activity in human THP1 cells assessed as inhibition of LPS-stimulated TNFalpha production at […] uM; assay type: functional; conditions: THP-1
[4] = molecular target: MAP kinase-activated protein kinase 2 (Homo sapiens) (UniProt P49137); test: Inhibition of MK2 (unknown origin) at 50 uM by scintillation proximity assay
Sequence of MAP kinase-activated protein kinase 2 (Homo sapiens) (P49137 whole entry, looked up): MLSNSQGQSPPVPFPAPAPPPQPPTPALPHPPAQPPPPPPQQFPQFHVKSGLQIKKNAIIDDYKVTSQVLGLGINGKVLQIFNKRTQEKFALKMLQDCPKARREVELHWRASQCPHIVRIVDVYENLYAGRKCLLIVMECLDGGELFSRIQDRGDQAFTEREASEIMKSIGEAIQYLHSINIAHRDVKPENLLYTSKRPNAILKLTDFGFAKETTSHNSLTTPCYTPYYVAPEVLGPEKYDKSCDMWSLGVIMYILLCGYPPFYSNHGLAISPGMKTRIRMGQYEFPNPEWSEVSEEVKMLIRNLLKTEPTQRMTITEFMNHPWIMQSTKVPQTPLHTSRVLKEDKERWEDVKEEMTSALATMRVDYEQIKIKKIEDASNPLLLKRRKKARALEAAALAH

[5] = Ratio of IC50 for human THP1 cells assessed as inhibition of LPS-stimulated TNFalpha production to IC50 for MK2 (unknown origin); parameters: species or system THP-1

| Structure (SMILES) | IC50 [2] [µM] | other results |
| --- | --- | --- |
| CO/N=C(\NCc1nc(Cl)cnc1N)Nc1ccc(NC(=O)OC(C)(C)C)cc1 | > 50 | inhibition at 50 µM [1]: 40% |
| CCCc1cnc(N)c(CNC(=O)Nc2ccc3[nH]c(=O)oc3c2)n1 | > 12.5 | inhibition at 12.5 µM [3]: 34% |
| Nc1ncc(Cl)nc1CNc1nc2ccccc2s1 | – | inhibition [4]: 36% |
| CCOC(=O)/N=C(\NCc1nc(C2CC2)cnc1N)Nc1ccc2[nH]c(=O)oc2c1 | 13 | – |
| Nc1ncc(C2CC2)nc1CN/C(=N\C(=O)c1ccc(Cl)cc1)Nc1ccc2[nH]c(=O)oc2c1 | 8.8 | – |
| Nc1ncc(Cl)nc1CNC(=S)Nc1ccccc1 | 7.9 | Ratio IC50 [5]: 4 |
| Nc1ncc(Cl)nc1-c1nc(N2CCc3ccccc32)no1 | – | inhibition [4]: 20% |
| Cc1ccc(C(=O)/N=C(\NCc2nc(C3CC3)cnc2N)Nc2ccc3[nH]c(=O)oc3c2)cc1 | 3.9 | – |
| CC(C)(C)OC(=O)Nc1ccc(N/C(=N/C#N)NCc2nc(C3CC3)cnc2N)cc1 | 10.2 | – |
| Nc1ncc(C2CC2)nc1CNC(=O)Nc1ccc2[nH]c(=O)oc2c1 | > 12.5 | inhibition at 12.5 µM [3]: 45% |
| CCCc1cnc(N)c(CN/C(=N\C#N)Nc2ccc3[nH]c(=O)oc3c2)n1 | 42 | – |

Source: ChEMBL document CHEMBL3627620, “Design, synthesis, and biological evaluation of aminopyrazine derivatives as inhibitors of mitogen-activated protein kinase-activated protein kinase 2 (MK-2)” (Bioorg Med Chem Lett, 2015)
